What was measured:
Type in all cases: in vivo
Lolium rigidum [1] = test: Pre-emergence herbicidal effect; settings: 80 g/ha, visual score after 3 weeks vs untreated controls
Source text: (§1) Seeds of monocotyledonous and dicotyledonous weed plants and crop plants are laid out in sandy loam soil in wood-fiber pots and covered with soil. The compounds of the invention, formulated in the form of wettable powders (WP) or as emulsion concentrates (EC), are then applied to the surface of the covering soil as aqueous suspension or emulsion at a water application rate equating to 600 to 800 L/ha with addition of 0.2% wetting agent. After the treatment, the pots are placed in a greenhouse and kept under good growth conditions for the trial plants. The damage to the test plants is scored visually after a test period of 3 weeks by comparison with untreated controls (herbicidal activity in percent (%): 100% activity=the plants have died, 0% activity=like control plants).

Setaria viridis [2] = test: Pre-emergence herbicidal effect; settings: 80 g/ha, visual score after 3 weeks vs untreated controls
Source text: as §1

Digitaria sanguinalis [3] = test: Pre-emergence herbicidal effect; settings: 80 g/ha, visual score after 3 weeks vs untreated controls
Source text: as §1

Alopecurus myosuroides [4] = test: Pre-emergence herbicidal effect; settings: 80 g/ha, visual score after 3 weeks vs untreated controls
Source text: as §1

Echinochloa crus-galli [5] = test: Pre-emergence herbicidal effect; settings: 80 g/ha, visual score after 3 weeks vs untreated controls
Source text: as §1

Avena fatua = test: Pre-emergence herbicidal effect; settings: 80 g/ha, visual score after 3 weeks vs untreated controls
Source text: as §1

Lolium rigidum [6] = test: Post-emergence herbicidal effect; settings: 80 g/ha, post-emergence at one-leaf stage, visual score after about 3 weeks
Experimental: (§2) Seeds of monocotyledonous and dicotyledonous weed and crop plants are laid out in sandyloam soil in wood-fiber pots, covered with soil and cultivated in a greenhouse under good growth conditions. 2 to 3 weeks after sowing, the test plants are treated at the one-leaf stage. The compounds of the invention, formulated in the form of wettable powders (WP) or as emulsion concentrates (EC), are then sprayed onto the green parts of the plants as aqueous suspension or emulsion at a water application rate equating to 600 to 800 l/ha with addition of 0.2% wetting agent. After the test plants have been left to stand in the greenhouse under optimal growth conditions for about 3 weeks, the action of the preparations is assessed visually in comparison to untreated controls (herbicidal action in percent (%): 100% activity=the plants have died, 0% activity=like control plants).

Hordeum murinum = test: Post-emergence herbicidal effect; settings: 80 g/ha, post-emergence at one-leaf stage, visual score after about 3 weeks
Experimental: as §2

Setaria viridis [7] = test: Post-emergence herbicidal effect; settings: 80 g/ha, post-emergence at one-leaf stage, visual score after about 3 weeks
Experimental: as §2

Digitaria sanguinalis [8] = test: Post-emergence herbicidal effect; settings: 80 g/ha, post-emergence at one-leaf stage, visual score after about 3 weeks
Experimental: as §2

Alopecurus myosuroides [9] = test: Post-emergence herbicidal effect; settings: 80 g/ha, post-emergence at one-leaf stage, visual score after about 3 weeks
Experimental: as §2

Echinochloa crus-galli [10] = test: Post-emergence herbicidal effect; settings: 80 g/ha, post-emergence at one-leaf stage, visual score after about 3 weeks
Experimental: as §2

| SMILES | Pre-emergence action LOLRI (herbicidal activity in percent) (Lolium rigidum [1]) [%] | Pre-emergence action SETVI (herbicidal activity in percent) (Setaria viridis [2]) [%] | Pre-emergence action DIGSA (herbicidal activity in percent) (Digitaria sanguinalis [3]) [%] | Pre-emergence action ALOMY (herbicidal activity in percent) (Alopecurus myosuroides [4]) [%] | Pre-emergence action ECHCG (herbicidal activity in percent) (Echinochloa crus-galli [5]) [%] | Pre-emergence action AVEFA (herbicidal activity in percent) (Avena fatua) [%] | Post-emergence action against LOLRI (herbicidal action in percent) (Lolium rigidum [6]) [%] | Post-emergence action against HORMU (herbicidal action in percent) (Hordeum murinum) [%] | Post-emergence action against SETVI (herbicidal action in percent) (Setaria viridis [7]) [%] | Post-emergence action against DIGSA (herbicidal action in percent) (Digitaria sanguinalis [8]) [%] | Post-emergence action against ALOMY (herbicidal action in percent) (Alopecurus myosuroides [9]) [%] | Post-emergence action against ECHCG (herbicidal action in percent) (Echinochloa crus-galli [10]) [%] |
| --- | --- | --- | --- | --- | --- | --- | --- | --- | --- | --- | --- | --- |
| CC#Cc1cc(Br)c(C2=C(O)C3(CCOCC3)NC2=O)c(OC)c1 [Example 1.1.01, 3-[2-Bromo-6-methoxy-4-(prop-1-yn-1-yl)phenyl]-4-hydroxy-8-oxa-1-azaspiro[4.5]dec-3-en-2-one] | 100 | 100 | 100 | 90 | 100 | 100 | 100 | 100 | 100 | 100 | 100 | 100 |
| C=CCOC1CCC2(CC1)NC(=O)C(c1c(Br)cc(C#CC)cc1OC)=C2OC(=O)OCC (centres unmarked) [Example 1.3.03] | 100 | 100 | 100 | 100 | 100 | 90 | 100 | – | 100 | 100 | 100 | 100 |
| CC#Cc1cc(Br)c(C2=C(OC(=O)OC)C3(CCOCC3)NC2=O)c(OC)c1 [Example 1.1.02, 3-[2-Bromo-6-methoxy-4-(prop-1-yn-1-yl)phenyl]-2-oxo-8-oxa-1-azaspiro[4.5]dec-3-en-4-yl methyl carbonate] | 100 | 100 | 100 | 90 | 80 | 80 | 100 | – | 100 | 100 | 100 | 100 |
| CC#Cc1cc(Br)c(C2=C(OC(=O)OCC)C3(CCC(OCCOC)CC3)NC2=O)c(OC)c1 (centres unmarked) [Example 1.3.07] | 100 | 100 | 100 | 100 | 100 | 100 | – | – | – | – | – | – |
| CC#Cc1cc(Br)c(C2=C(OC(=O)OCC)C3(CCOCC3)NC2=O)c(OC)c1 [Example 1.1.03] | – | – | – | – | – | – | 100 | – | 100 | 100 | 80 | 100 |
| CC#Cc1cc(Br)c(C2=C(OC(=O)OC)C3(CCC(OC(C)C)CC3)NC2=O)c(OC)c1 (centres unmarked) [Example 1.3.11] | 100 | 100 | 100 | 100 | 100 | 90 | – | – | – | – | – | – |
| C=CCOC1CCC2(CC1)NC(=O)C(c1c(Br)cc(C#CC)cc1OC)=C2OC(=O)OC (centres unmarked) [Example 1.3.02] | 100 | 100 | 100 | 100 | 100 | 90 | 80 | – | 100 | 100 | 100 | 90 |

Source: patent US20220056040A1, “NOVEL 3-(2-BROMO-4-ALKYNYL-6-ALKOXYPHENYL)-3-PYRROLIN-2-ONES AND THEIR USE AS HERBICIDES” (Bayer Aktiengesellschaft, priority 2019, published 2022)
